Results on 89 molecules are retold here after a melting point compilation (Tetko et al.; mined from patent text by program, amines drawn as free bases though some values may be those of a salt).

What is called melting point is the temperature of the solid-liquid transition. In turn, `CC(C)OC(=O)c1cc(Cl)c(Cl)c(-c2ccccc2)n1` displayed a melting point of 94 to 96 °C.

In turn, `Cc1c(-c2ccccc2)n[nH]c1OCCN1CCOCC1` gave a melting point of 100 °C.

`CCCN1CCN(c2cccc3ccc(NC(=O)c4ccc(Cl)cc4)cc23)CC1` returned a melting point of 130 to 132 °C.

`COc1cc(N)c(Cl)cc1C(=O)NC1CCN(C(=O)OC(C)(C)C)CC1F` (centres undefined): the melting point was 198 to 199 °C.

For `COCC(COC)(CN(C)CCP(C)(C)=S)SCc1ccccc1`, the melting point was 74 °C.

`Cc1c(CCc2ccc3nc(N)sc3c2)ncn1C(c1ccccc1)(c1ccccc1)c1ccccc1` came in with a melting point of 200 to 203 °C.

For `CN(C)c1ccc2nc3c4ccccc4c(=Nc4ccncc4)cc-3oc2c1`, the melting point lay in the range of 217 to 218 °C.

In the case of `CCOC(=O)C(C)Oc1ccc(Oc2cnc3ccc(Cl)cc3c2)cc1` (centres undefined), the melting point came to 98 °C.

Molecule `CC(C)(C)[N+]([O-])=CCc1ccccc1` returned a melting point of 143 °C.

For the molecule `CN(C)CCN(C(=O)N(C)C)c1nc2ccccc2[nH]1`, the melting point lay within 193 to 195 °C.

As to `Cc1nc(-c2ccccc2)c(CC(C)C(=O)O)o1` (centres undefined), the melting point is 109 to 110 °C.

In turn, `Clc1ccc(CCCN2CCc3cc(OC[C@H]4CO[C@](Cn5ccnc5)(c5ccc(Cl)cc5)O4)ccc3C2)cc1` (racemic) came in with a melting point of 101 to 103 °C.

As for `Fc1cccc(-c2ncc(-c3cnc(-c4ccccc4)nc3)[nH]2)c1`, the melting point turned out to be 221 °C.

The molecule `CC1(C)CC(=O)C(c2c(Cl)cc(N)cc2Cl)C(=O)C1` gave a melting point of 243 °C.

Molecule `CC(C)c1ccc(NC(=N)c2cccc(NC(=O)C=Cc3ccccc3Cl)c2)cc1` showed a melting point of 112 to 118 °C.

For the molecule `CC(=O)C(=O)CCCCCCOc1ccc(-c2ccccc2)cc1`, the melting point lay in the range of 110 to 111 °C.

On to `CS(=O)(=O)Oc1ccccc1S(N)(=O)=O`, for which the melting point fell in the range of 131 to 132 °C.

`Nc1nc2c(ncn2[C@@H]2CO[C@H](CO)C2)c(=O)[nH]1` registered a melting point of 261 to 263 °C.

For the molecule `O=C(O)CCOCCCc1ccc(-c2nc(=O)c3ccccc3s2)nc1`, the melting point is 145 to 147 °C.

Turning to `O=c1ccn(CCOCCO)c(C(O)c2ccccc2)c1OCc1ccccc1` (centres undefined), the melting point was in the range of 157 to 159 °C.

Regarding `CC(=O)Nc1cccc(CCCCC(=O)O)c1`, the melting point was 137 to 138 °C.

Molecule `COc1cc(I)c(I)cc1OC` returned a melting point of 134 to 136 °C.

`CN1CC(=O)N2[C@H](c3ccc(O)c(O)c3)c3[nH]c4ccccc4c3C[C@@H]2C1=O` came in with a melting point of 224 to 226 °C.

Take `N#CCc1cccc(C(=O)c2ccccc2)c1N`: the melting point was in the range of 138 to 139 °C.

As for `CC(=O)Nc1cc([N+](=O)[O-])ccc1O`, the melting point fell in the range of 283 to 284 °C.

As to `COC(=O)c1nc(OC(C)=O)cc2c1[nH]c1ccccc12`, the melting point fell in the range of 151 to 152 °C.

`O=C(O)c1ccc(NCc2cc(Br)ccc2CCc2ccccc2)cc1`: the melting point lay in the range of 132 to 134 °C.

For the molecule `CN1CCN(c2ccc(O)c3c2C[C@H](N)CC3)CC1`, the melting point is 238 to 239 °C.

The molecule `Fc1ccc(/C=C/C2=CCN(Cc3c[nH]c4ncccc34)CC2)cc1` gave a melting point of 211 to 213 °C.

On to `[O-][N+](C1C2CC(c3ccccc32)C1Cl)=[N+]([O-])C1C2CC(c3ccccc32)C1Cl` (centres undefined), for which the melting point lay in the range of 187 to 188 °C.

`CC(C)(C)OC(=O)CN1CC(c2ccc3ccccc3c2)SCC(N2C(=O)c3ccccc3C2=O)C1=O` (centres undefined) registered a melting point of 208 to 210 °C.

`Cc1ccc(-c2[nH]c(=O)n(C3CCN(Cc4ccccc4C)CC3)c2C)cc1` had a melting point of 262 °C.

Regarding `CCN1C(=O)C(=CC=C2C=C3c4ccccc4CCN3C3=C2CCCC3)C(=O)N(CC)C1=S`, the melting point came to 320 °C.

As for `N#Cc1ccc(-c2ccc(O)c(-c3nc4cc(C#N)ccc4[nH]3)c2)cc1`, the melting point was greater than 340 °C.

`Cc1cc(NN)c2ccccc2n1`: the melting point was 195 to 197 °C.

Regarding `CC(Oc1ccc(Oc2ncc(C(F)(F)F)cc2Cl)cc1)C(=O)Nc1ccc(OC(F)(F)F)cc1` (centres undefined), the melting point lay in the range of 140 to 141 °C.

Turning to `O=C1NN=C(c2cccc([N+](=O)[O-])c2)C2CC12` (centres undefined), the melting point was 220 to 221 °C.

For `O=C(O)Cc1csc(-c2cc3cccc(NS(=O)(=O)c4cccs4)c3[nH]2)n1`, the melting point was in the range of 228 to 229 °C.

`CN(C)CCC=C1c2ccccc2CCc2ccc(S(C)(=O)=O)cc21` returned a melting point of 109 to 110 °C.

The molecule `NC(=O)c1nccn1C1Cc2cc(-n3ccnc3)ccc2C1=O` (centres undefined) had a melting point of 140 °C.

For `O=C(O)c1ccccc1NC(=O)c1ncoc1-c1ccc(C(F)(F)F)cc1`, the melting point lay in the range of 231 to 232 °C.

In turn, `CS(=O)(=O)c1ccc(Oc2cc3nc(-c4ccccc4)oc3cc2[N+](=O)[O-])cc1` displayed a melting point of 123 to 125 °C.

`C=CC=CN(C(=O)CCl)c1c(C)cccc1C` showed a melting point of 88 °C.

As to `Cc1[nH]c(Cl)c(C#N)c1SC#N`, the melting point is 171 °C.

`CS(=O)(=O)c1ccc(-c2cnn(Cc3ccccc3)c(=O)c2Cc2ccc(F)cc2)cc1` registered a melting point of 186 to 189 °C.

For the molecule `Nc1ccccc1Oc1ccc2c(c1)C(=O)NC2=O`, the melting point came to 212 °C.

Molecule `N#Cc1ccc(NC(=O)c2cccc(OCc3ccc(C(F)(F)F)cc3)c2)cc1` gave a melting point of 167 to 168 °C.

Molecule `CSc1nc(Cl)c2ncccc2n1` gave a melting point of 120 to 121 °C.

Molecule `CC(C)(C)OC(=O)NNC(=O)c1ccc(O)c(O)c1` returned a melting point of 148 °C.

Regarding `CN1C(=O)CC(=O)N(c2ccccc2)c2cc(Cl)ccc21`, the melting point was in the range of 166 to 168 °C.

For the molecule `Cn1c(=O)c2c(ncn2CCN2CCC(c3c[nH]c4ccc(O)cc34)CC2)n(C)c1=O`, the melting point amounted to 232 °C.

The molecule `COc1cc(C2CCN(CC(N)=O)CC2)ccc1Nc1ncc2ccc(-c3cccc(S(=O)(=O)NC(C)(C)C)c3)n2n1` yielded a melting point of 250 to 252 °C.

`COC(=O)c1cc2cc(Br)ccc2nc1C` yielded a melting point of 150 to 151 °C.

The molecule `CCc1c(-c2ccc(O)cc2)c2cc(COCCCN3CCCCC3)c3cccc1n32` had a melting point of 176 to 178 °C.

The molecule `COc1cc(Nc2nccc(-c3ccncc3)n2)cc(OC)c1OC` registered a melting point of 205 °C.

Molecule `CC(C)(C)OC(=O)NC[C@@H]1CNC(=O)O1` registered a melting point of 116 °C.

As for `COc1ccc(C(=O)N(C(=O)c2ccc(OC)cc2)c2nc3ccc(N(C)C)cc3c(NCc3ccccc3)c2C#N)cc1`, the melting point turned out to be 156 °C.

`Cc1nc(C(=O)Cl)c(CCc2ccccc2)o1` came in with a melting point of 38 to 39 °C.

In the case of `CNCC1(C)Cc2c(C)c(N3CCN(c4ccc(OC)cc4)CC3)c(C)c(C)c2O1` (centres undefined), the melting point is 107 to 113 °C.

In the case of `CCN(CC)c1ccc([N+](=O)[O-])cc1C#N`, the melting point was in the range of 83 to 85 °C.

The molecule `CCc1nnc(CCc2ccc(NC(=O)/C=C/c3cnn(C)c3-c3ccc(F)cc3)cc2)o1` yielded a melting point of 167 to 168 °C.

`CCCCCn1c2ccc(CN3CCCCC3)cc2c2ccc(OC)cc21`: the melting point lay within 64 to 65 °C.

`CC1(OCC(F)(F)F)C=NC(c2cc(-c3ccc(S(C)(=O)=O)cc3)c(N3CCOCC3)s2)=CC1` (centres undefined): the melting point turned out to be 156 °C.

As for `Cc1c(C=O)c2cnnc(OCc3ccc(F)cc3)c2n1C[C@H]1C[C@@H]1C`, the melting point fell in the range of 138 to 140 °C.

On to `C(OCC1CO1)C1CO1` (centres undefined), for which the melting point was in the range of 90 to 93 °C.

Take `CCOC1=NS(=O)(=O)c2ccc(N)cc21`: the melting point is 154 to 156 °C.

On to `CCOC(=O)Cc1ccc(-c2nc(COc3ccc(COc4nn(-c5ccccc5)cc4/C=C/c4cn(CC)cn4)cc3OC)c(C)o2)cc1`, for which the melting point was in the range of 140 to 141 °C.

With `Cc1ccc(S(=O)(=O)Nc2ccc([N+](=O)[O-])cc2Cl)cc1`, the melting point was in the range of 167 to 168 °C.

The molecule `Fc1ccccc1C1=NCc2cncn2-c2ccc(Cl)cc21` had a melting point of 148 to 151 °C.

As for `CC(=O)NC[C@H]1CN(c2ccc(-n3cc(-c4ccncc4)cn3)c(F)c2)C(=O)O1`, the melting point was 204 to 205 °C.

In turn, `CS(=O)(=O)N1CC1COc1ccc(C#N)cc1` (centres undefined) showed a melting point of 79 to 81 °C.

In turn, `CC(C)c1cccc(CO)c1NC(=O)CC1c2ccccc2Oc2ccccc21` had a melting point of 155 to 156 °C.

In turn, `O=C1CCCc2c1ccc(O)c2O` had a melting point of 191 to 194 °C.

Molecule `C=CCOc1cc(NC(=O)OCC)c(F)cc1Br` returned a melting point of 66 to 68 °C.

Molecule `COC(=O)Cc1c(C)n(Cc2ccc(Cl)cc2)c2ccc(OCc3ccc4ccccc4n3)cc12` registered a melting point of 132 to 134 °C.

`CC(C)(N)CNCCCCCCNCC(C)(C)N` came in with a melting point of 25 to 35 °C.

In the case of `O=C(CN1C(=O)c2ccccc2C1=O)N1CCN(C(=O)c2cc(C(F)(F)F)cc(C(F)(F)F)c2)[C@H](Cc2c[nH]c3ccccc23)C1`, the melting point was greater than 220 °C.

On to `COc1ccc2c(c1)c(C1CCN(CCOc3ccccc3C(=O)O)CC1)cn2Cc1cccs1`, for which the melting point was 150 to 151 °C.

The molecule `COc1cc2c(cc1OC)[C@H]1CCCC[C@H]1N=C2c1ccc(C(C)=NO)cc1` yielded a melting point of 189 to 192 °C.

As to `CCOC(=O)c1cn(C2CC2)c2c(C)c(F)c(F)c(N)c2c1=O`, the melting point is 182 to 186 °C.

Molecule `COc1ccc2c(N)c(C(=O)Nc3ccc(Cl)cc3Cl)oc2c1` showed a melting point of 187 to 188 °C.

Consider `Cn1c2cc[nH]c(=O)c2c2cccc(F)c21`, for which the melting point lay within 294 to 296 °C.

`COC(=O)c1cccnc1NS(=O)(=O)NC(C)C` displayed a melting point of 121 to 123 °C.

Molecule `CC(C)(C)c1c[nH]c(S)n1` came in with a melting point of 232 to 234 °C.

`CNC(=O)c1cc(-c2ccc(S(C)=O)cc2)c(-c2ccc(F)cc2)s1` (centres undefined) showed a melting point of 218 to 220 °C.

Molecule `O=C(Sc1ccccn1)c1ccc(I)cc1` showed a melting point of 127 °C.

For the molecule `C=CCn1c(C)c(C)c2cnnc(OCc3ccc(Cl)cc3Cl)c21`, the melting point was 98 to 99 °C.

For the molecule `Cc1ccc(NC(=O)c2ccc(CN3C[C@@H](C)N[C@@H](C)C3)c(Br)c2)cc1Nc1nccc(-c2cccnc2)n1`, the melting point lay in the range of 204 to 205 °C.

In turn, `COc1cc(C(=O)Nc2c(Cl)cncc2Cl)ccc1OC(F)F` had a melting point of 170 °C.
